Results on eight compounds are retold here after patent publication US10231954B2, “Neurodegenerative therapies” (LYTIX BIOPHARMA AS, priority 2014, dated 2019).

Where two headings read alike, the source gives them in different places.

Type in all cases: biochemical
Assay [1] has as its target MNK1 (Homo sapiens, UniProt Q9BUB5). In words: Kinase profiling MNK1. The conditions noted are these: for remaining activity at 100 µM: read-out: residual kinase activity, MNK1. The text has this:
(§1) Any value less that 25 is considered to be highly significant inhibition.

For assay [2], the target named is T1, MARK4 (Homo sapiens, UniProt Q96L34).
T1 sequence (Q96L34 1-752): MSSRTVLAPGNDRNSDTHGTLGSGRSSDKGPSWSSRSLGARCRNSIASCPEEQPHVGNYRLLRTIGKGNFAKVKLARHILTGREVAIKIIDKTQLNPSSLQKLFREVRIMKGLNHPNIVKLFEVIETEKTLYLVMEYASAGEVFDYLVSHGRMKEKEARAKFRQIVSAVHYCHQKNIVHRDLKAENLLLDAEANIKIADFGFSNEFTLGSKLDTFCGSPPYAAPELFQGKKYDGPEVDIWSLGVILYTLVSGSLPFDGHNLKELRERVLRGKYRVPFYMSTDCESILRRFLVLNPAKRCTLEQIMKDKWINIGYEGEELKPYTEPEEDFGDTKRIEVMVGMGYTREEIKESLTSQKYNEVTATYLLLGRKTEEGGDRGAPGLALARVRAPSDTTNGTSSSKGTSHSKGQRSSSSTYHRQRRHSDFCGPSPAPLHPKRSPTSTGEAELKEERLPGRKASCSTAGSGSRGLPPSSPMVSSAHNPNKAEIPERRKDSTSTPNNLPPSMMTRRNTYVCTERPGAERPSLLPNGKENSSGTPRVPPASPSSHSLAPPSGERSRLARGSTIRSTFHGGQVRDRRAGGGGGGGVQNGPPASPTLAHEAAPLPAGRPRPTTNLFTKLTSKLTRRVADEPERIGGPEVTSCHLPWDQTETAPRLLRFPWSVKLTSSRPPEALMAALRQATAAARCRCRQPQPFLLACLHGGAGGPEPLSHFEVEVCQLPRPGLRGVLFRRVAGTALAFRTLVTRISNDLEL
In words: Kinase profiling MARK4. The conditions noted are these: for remaining activity at 100 µM: read-out: residual kinase activity, MARK4.
Source text: as §1

Assay [3] has as its target T2, BRSK1 (Homo sapiens, UniProt Q8TDC3).
T2 sequence (Q8TDC3 1-778): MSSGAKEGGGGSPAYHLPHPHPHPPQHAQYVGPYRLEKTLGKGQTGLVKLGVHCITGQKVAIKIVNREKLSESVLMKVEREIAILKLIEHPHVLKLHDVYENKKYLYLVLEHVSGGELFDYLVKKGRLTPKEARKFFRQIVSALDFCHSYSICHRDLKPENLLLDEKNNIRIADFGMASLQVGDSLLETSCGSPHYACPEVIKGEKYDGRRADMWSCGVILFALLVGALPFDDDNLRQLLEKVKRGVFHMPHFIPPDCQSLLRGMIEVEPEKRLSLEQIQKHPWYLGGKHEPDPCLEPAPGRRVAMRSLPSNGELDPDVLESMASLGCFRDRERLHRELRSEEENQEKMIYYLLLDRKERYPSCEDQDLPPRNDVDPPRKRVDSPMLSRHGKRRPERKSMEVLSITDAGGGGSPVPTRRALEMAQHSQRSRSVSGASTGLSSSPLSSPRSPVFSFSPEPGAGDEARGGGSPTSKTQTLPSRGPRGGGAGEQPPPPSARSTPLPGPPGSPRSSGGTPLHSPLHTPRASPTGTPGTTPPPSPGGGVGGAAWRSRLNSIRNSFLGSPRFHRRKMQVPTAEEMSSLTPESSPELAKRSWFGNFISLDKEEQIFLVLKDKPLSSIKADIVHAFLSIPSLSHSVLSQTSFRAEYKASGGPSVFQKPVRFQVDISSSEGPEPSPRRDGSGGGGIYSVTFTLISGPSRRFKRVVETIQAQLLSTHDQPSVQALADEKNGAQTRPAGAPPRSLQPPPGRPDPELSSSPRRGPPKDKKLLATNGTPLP
In words: Kinase profiling BRSK1. To be noted: for remaining activity at 100 µM: read-out: residual kinase activity, BRSK1.
Source text: as §1

For assay [4], the target named is MEKK1 (Homo sapiens, UniProt Q13233). The experiment in a line: Kinase profiling MEKK1. To be noted: for remaining activity at 100 µM: read-out: residual kinase activity, MEKK1.
Sequence of MEKK1 (Q13233 whole entry, species assumed): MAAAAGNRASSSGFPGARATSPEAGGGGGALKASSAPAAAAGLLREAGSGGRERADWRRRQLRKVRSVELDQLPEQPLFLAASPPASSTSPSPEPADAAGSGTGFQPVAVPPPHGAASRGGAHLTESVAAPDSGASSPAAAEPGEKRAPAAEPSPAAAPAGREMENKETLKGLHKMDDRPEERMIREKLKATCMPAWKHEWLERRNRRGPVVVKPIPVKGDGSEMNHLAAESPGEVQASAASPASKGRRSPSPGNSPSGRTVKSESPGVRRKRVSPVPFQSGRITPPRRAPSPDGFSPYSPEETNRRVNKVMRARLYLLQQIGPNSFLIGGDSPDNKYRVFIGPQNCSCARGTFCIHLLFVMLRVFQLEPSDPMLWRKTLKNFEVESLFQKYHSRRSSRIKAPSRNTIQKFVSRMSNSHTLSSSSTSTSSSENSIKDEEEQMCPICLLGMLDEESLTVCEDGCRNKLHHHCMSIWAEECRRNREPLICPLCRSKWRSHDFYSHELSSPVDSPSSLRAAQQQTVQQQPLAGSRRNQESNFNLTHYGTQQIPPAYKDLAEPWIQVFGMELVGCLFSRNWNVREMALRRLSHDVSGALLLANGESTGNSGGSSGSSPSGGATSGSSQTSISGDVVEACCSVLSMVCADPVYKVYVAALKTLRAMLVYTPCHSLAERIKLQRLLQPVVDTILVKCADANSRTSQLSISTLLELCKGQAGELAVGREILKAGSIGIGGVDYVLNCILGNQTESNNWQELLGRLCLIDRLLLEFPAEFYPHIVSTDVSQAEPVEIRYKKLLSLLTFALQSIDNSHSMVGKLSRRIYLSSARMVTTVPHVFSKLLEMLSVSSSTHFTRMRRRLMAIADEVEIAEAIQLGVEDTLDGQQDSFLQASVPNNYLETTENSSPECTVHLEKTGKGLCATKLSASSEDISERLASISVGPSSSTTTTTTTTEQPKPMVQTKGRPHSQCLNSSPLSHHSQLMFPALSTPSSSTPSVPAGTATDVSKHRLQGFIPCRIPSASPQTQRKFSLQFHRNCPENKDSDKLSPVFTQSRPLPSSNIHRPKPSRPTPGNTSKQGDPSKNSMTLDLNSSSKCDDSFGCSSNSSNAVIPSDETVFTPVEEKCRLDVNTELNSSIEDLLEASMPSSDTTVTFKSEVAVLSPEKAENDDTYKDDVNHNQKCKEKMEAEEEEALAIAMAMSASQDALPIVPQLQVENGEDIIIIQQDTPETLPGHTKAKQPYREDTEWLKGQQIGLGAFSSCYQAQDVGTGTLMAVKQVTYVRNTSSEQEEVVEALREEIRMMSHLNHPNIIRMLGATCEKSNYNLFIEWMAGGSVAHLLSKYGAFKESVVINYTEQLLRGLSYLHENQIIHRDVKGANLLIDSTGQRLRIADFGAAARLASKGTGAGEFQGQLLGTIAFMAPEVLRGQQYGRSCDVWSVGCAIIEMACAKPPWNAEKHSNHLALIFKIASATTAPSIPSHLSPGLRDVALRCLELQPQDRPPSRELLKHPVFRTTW
Source text: as §1

Assay [5] deals with MPSK1 (Homo sapiens, UniProt O75716). In words: Kinase profiling MPSK1. To be noted: for remaining activity at 100 µM: read-out: residual kinase activity, MPSK1.
Sequence of MPSK1 (O75716 whole entry, species assumed): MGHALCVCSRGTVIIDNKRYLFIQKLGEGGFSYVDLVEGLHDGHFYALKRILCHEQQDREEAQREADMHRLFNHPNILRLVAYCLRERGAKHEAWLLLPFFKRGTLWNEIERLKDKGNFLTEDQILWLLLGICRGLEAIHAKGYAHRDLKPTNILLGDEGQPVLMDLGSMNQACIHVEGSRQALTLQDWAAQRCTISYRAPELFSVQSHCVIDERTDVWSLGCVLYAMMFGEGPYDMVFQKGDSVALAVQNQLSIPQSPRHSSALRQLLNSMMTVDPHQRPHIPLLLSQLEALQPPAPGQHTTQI
Source text: as §1

For assay [6], the target named is ABL (Homo sapiens, UniProt P00519). The experiment in a line: Kinase profiling ABL. To be noted: for remaining activity at 100 µM: read-out: residual kinase activity, ABL.
Sequence of ABL (P00519 whole entry, species assumed): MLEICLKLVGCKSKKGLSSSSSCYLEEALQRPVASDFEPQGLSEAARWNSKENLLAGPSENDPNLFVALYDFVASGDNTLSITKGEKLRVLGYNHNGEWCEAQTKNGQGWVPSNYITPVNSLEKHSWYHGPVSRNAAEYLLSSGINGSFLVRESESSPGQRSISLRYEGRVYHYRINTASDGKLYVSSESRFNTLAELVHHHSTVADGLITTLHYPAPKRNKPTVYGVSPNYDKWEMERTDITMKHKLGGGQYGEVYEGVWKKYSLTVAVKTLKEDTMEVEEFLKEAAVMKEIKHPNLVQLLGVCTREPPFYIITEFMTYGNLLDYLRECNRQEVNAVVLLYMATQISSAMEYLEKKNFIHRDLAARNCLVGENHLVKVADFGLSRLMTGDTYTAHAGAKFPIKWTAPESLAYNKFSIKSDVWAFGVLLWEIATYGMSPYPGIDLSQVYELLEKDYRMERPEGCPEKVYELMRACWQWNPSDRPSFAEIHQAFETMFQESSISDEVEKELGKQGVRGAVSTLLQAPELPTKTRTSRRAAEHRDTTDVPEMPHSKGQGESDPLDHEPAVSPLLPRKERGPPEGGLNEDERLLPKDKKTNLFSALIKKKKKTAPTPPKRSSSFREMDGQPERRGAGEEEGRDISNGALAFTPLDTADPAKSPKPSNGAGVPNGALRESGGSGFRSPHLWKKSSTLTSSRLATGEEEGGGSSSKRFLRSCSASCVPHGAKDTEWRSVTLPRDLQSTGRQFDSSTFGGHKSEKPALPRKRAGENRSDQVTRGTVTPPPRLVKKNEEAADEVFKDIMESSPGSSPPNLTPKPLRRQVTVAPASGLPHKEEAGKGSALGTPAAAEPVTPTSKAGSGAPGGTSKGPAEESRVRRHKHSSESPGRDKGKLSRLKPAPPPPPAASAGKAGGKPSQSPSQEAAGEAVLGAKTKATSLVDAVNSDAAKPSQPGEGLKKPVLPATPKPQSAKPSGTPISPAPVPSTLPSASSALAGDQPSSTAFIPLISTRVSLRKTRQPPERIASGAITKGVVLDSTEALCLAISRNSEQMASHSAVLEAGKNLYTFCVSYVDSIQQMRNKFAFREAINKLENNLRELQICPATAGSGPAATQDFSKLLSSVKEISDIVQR
Source text: as §1

Assay [7] concerns the target EPH-A4 (Homo sapiens, UniProt P54764). The experiment in a line: Kinase profiling EPH-A4. To be noted: for remaining activity at 100 µM: read-out: residual kinase activity, EPH-A4.
Source text: as §1

The target in assay [8] is IR (Homo sapiens, UniProt P06213). In words: Kinase profiling IR. To be noted: for remaining activity at 100 µM: read-out: residual kinase activity, IR.
Source text: as §1

Assay [9] deals with IRR (Homo sapiens, UniProt P14616). The experiment in a line: Kinase profiling IRR. To be noted: for remaining activity at 100 µM: read-out: residual kinase activity, IRR.
Source text: as §1

Assay [10] addresses T3, TGFBR1 (Homo sapiens, UniProt P36897).
T3 sequence (P36897 34-503): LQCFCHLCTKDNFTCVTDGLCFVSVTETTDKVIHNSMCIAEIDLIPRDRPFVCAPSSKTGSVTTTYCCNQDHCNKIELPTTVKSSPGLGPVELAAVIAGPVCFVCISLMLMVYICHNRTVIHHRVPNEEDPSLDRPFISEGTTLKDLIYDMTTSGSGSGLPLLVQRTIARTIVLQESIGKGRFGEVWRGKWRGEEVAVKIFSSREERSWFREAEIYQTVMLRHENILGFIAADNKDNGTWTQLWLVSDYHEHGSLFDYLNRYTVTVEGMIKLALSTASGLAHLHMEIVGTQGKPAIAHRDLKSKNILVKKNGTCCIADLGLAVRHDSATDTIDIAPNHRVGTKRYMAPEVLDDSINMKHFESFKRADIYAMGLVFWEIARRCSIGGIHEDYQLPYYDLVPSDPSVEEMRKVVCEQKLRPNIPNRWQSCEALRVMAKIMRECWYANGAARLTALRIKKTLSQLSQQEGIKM
The experiment in a line: Kinase profiling TGFBR1. To be noted: for residual kinase activity, TGFBR1: 100 micromolar inhibitor concentration, 100 is no change.
Source text: as §1

Where [11] appears, read: 100 micromolar inhibitor concentration, 100 is no change.
Where [12] appears, read: 100 micromolar inhibitor, 100 = no change.

Sequence of EPH-A4 (P54764 20-986, species assumed): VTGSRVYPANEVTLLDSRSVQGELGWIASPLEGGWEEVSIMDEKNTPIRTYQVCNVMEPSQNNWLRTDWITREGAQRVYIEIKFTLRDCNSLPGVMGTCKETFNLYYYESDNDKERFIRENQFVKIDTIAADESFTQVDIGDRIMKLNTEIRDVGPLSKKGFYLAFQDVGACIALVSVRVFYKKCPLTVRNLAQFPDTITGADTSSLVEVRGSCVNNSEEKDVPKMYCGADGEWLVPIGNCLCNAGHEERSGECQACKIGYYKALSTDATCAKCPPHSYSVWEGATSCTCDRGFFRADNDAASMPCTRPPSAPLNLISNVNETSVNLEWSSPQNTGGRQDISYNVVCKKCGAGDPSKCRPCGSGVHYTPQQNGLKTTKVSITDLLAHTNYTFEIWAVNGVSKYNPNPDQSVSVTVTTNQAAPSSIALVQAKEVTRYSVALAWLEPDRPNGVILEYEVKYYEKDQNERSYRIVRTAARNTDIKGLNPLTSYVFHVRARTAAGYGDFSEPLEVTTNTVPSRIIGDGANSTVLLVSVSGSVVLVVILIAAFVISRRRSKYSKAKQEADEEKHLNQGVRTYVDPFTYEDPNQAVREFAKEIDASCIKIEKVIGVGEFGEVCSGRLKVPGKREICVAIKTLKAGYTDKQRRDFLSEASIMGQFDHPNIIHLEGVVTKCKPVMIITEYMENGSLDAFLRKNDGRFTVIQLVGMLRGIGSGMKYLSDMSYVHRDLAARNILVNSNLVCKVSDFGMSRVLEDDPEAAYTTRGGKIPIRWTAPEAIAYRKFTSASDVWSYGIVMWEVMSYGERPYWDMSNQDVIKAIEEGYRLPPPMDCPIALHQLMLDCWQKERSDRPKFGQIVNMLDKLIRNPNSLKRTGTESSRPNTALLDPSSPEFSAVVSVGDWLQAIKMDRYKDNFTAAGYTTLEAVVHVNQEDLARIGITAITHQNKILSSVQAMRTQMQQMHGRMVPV
Sequence of MNK1 (Q9BUB5 whole entry, species assumed): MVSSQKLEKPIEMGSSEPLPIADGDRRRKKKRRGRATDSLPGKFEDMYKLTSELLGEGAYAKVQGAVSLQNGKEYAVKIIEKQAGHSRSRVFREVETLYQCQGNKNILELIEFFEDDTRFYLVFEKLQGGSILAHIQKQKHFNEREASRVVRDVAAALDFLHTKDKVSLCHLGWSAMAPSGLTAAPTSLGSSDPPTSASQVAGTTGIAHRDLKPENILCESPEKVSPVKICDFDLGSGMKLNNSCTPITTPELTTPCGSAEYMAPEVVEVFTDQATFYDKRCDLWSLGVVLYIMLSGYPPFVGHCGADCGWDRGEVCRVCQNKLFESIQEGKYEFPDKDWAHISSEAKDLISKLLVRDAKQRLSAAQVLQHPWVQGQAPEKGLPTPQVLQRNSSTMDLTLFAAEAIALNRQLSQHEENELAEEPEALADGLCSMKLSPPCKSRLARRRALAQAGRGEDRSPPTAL

Regarding `CC(=O)Nc1nc2cc(O)ccc2s1` [Compound 01-66, N-(5-hydroxybenzo[d]thiazol-2-yl)acetamide], the remaining activity at 100 µM in [1] worked out at 17%; in assay [2] it was 80%; in [3] it was 48%; in assay [4], 94%; in assay [5], 80%; in assay [6], 29%. The remaining activity at 100 µM was found to be 73% in assay [7], 63% in assay [8] and 30% in assay [9].
Take `CC(=O)Nc1nc2ccc(O)cc2s1` [Compound 01-71]: the remaining activity at 100 µM in assay [1] (setting [11]) was 28%; in assay [2] (setting [11]), 66%; in [3] (setting [11]) it was 16%; in assay [4] (setting [11]), 96%; in assay [5] (setting [11]), 77%; in assay [6] (setting [11]) it was 17%. For the same compound, the remaining activity at 100 µM in assay [7] (setting [11]) is 77%; in assay [8] (setting [11]), 35%; in assay [9] (setting [11]), 34%.
With `CC(=O)Nc1nc2ccc(C(F)(F)F)cc2s1` [Compound 01-90], the remaining activity at 100 µM in [1] (setting [11]) was determined as 65%; in assay [2] (setting [11]) it was 66%; in assay [3] (setting [11]) it was 83%; in assay [4] (setting [11]), 90%; in [5] (setting [11]), 105%; in [6] (setting [11]), 31%. Also, the remaining activity at 100 µM came out at 45% in assay [7] (setting [11]), 84% in [8] (setting [11]) and 49% in [9] (setting [11]).
`CC(=O)Nc1nc2ccc(C#N)cc2s1` [Compound 01-94]: the remaining activity at 100 µM was determined as 47% in [1] (setting [11]); 51% in [2] (setting [11]); 62% in assay [3] (setting [11]); 94% in [4] (setting [11]); 94% in assay [5] (setting [11]); 31% in assay [6] (setting [11]). In addition, the remaining activity at 100 µM in [7] (setting [11]) was determined as 62%; in [8] (setting [11]) it was 81%; in assay [9] (setting [11]), 42%.
Consider `CC(=O)Nc1cccc(NC(=O)c2nc3ccc(O)cc3s2)c1` [Compound 03-07, N-(3-acetamidophenyl)-6-hydroxybenzo[d]thiazole-2-carboxamide], for which the remaining activity at 100 µM in assay [1] (setting [12]) was 40%; in [2] (setting [12]), 71%; in assay [3] (setting [12]), 52%; in assay [4] (setting [12]), 115%; in assay [5] (setting [12]) it was 108%; in assay [10] (100 micromolar inhibitor, 100 = no change, read-out: residual kinase activity, TGFBR1), 113%. Also, the remaining activity at 100 µM in assay [6] (setting [12]) came out at 105%; in assay [7] (setting [12]) it was 95%; in assay [8] (setting [12]), 66%; in assay [9] (setting [12]), 75%.
Consider `O=C(Nc1nc2cc(O)ccc2s1)c1ccncc1` [Compound 03-11], for which the “residual kinase activity, MNK1” value in assay [1] (setting [11]) is 45. In addition, in assay [2] (setting [11]), the “residual kinase activity, MARK4” value is 102. Moreover, the “residual kinase activity, BRSK1” value in assay [3] (setting [11]) was 70. Also, the “residual kinase activity, MEKK1” value in assay [4] (setting [11]) is listed as 106. In [5] (setting [11]), the “residual kinase activity, MPSK1” value came to 73. Further, the “residual kinase activity, TGFBR1” value in assay [10] turned out to be 107. Also, the “residual kinase activity, ABL” value in assay [6] (setting [11]) came out at 99. In addition, in assay [7] (setting [11]), the “residual kinase activity, EPH-A4” value is reported as 91. For the same compound, in [8] (setting [11]), the “residual kinase activity, IR” value is on record as 106. The “residual kinase activity, IRR” value in [9] (setting [11]) is 86.
For `O=C(Nc1nc2ccc(O)cc2s1)c1ccccn1` [Compound 03-12], the “residual kinase activity, MNK1” value in assay [1] (setting [11]) is 67. In addition, in [2] (setting [11]), the “residual kinase activity, MARK4” value worked out at 90. Besides, in assay [3] (setting [11]), the “residual kinase activity, BRSK1” value turned out to be 63. Also, the “residual kinase activity, MEKK1” value in assay [4] (setting [11]) is given as 127. Moreover, the “residual kinase activity, MPSK1” value in assay [5] (setting [11]) is on record as 90. Moreover, the “residual kinase activity, TGFBR1” value in assay [10] came to 117. In addition, the “residual kinase activity, ABL” value in [6] (setting [11]) is 113. Moreover, the “residual kinase activity, EPH-A4” value in assay [7] (setting [11]) is on record as 78. The “residual kinase activity, IR” value in assay [8] (setting [11]) is 27. Moreover, the “residual kinase activity, IRR” value in assay [9] (setting [11]) turned out to be 82.
Consider `O=C(Nc1nc2cc(O)ccc2s1)c1ccccn1` [Compound 03-13], for which the “residual kinase activity, MNK1” value in [1] (setting [11]) was 100. The “residual kinase activity, MARK4” value in [2] (setting [11]) came out at 71. In addition, in assay [3] (setting [11]), the “residual kinase activity, BRSK1” value is on record as 95. The “residual kinase activity, MEKK1” value in assay [4] (setting [11]) came out at 114. Also, the “residual kinase activity, MPSK1” value in assay [5] (setting [11]) came out at 102. In assay [10], the “residual kinase activity, TGFBR1” value is recorded as 109. The “residual kinase activity, ABL” value in [6] (setting [11]) is listed as 71. Also, the “residual kinase activity, EPH-A4” value in assay [7] (setting [11]) is on record as 89. For the same compound, in [8] (setting [11]), the “residual kinase activity, IR” value was 74. For the same compound, the “residual kinase activity, IRR” value in [9] (setting [11]) amounted to 78.
